Reference: patent publication US6723720B2, “Pesticidal triazine-derivatives” (Novartis Animal Health US, Inc., priority 1999, dated 2004)

melting point: 159 to 160 °C
Structure (SMILES): Fc1cccc(F)c1-c1cnnc(-c2ccc(-c3ccc(OC(F)(F)F)cc3)cc2)n1 [Example 1.6, 5-(2,6-Difluorophenyl)-3-(4′-trifluoromethoxybiphenyl-4-yl)-[1,2,4]triazine]
